Results reported in US20260207637A1, “MODULATOR FOR PROMOTING BINDING OF BUTYROPHILIN 3A1/2A1” (priority 2023, published 2026).
Read-outs that look alike come from different tables or passages of the source.

Assays:
[1] = Stability experiment of compounds in human whole blood; assay type: in vitro ADME; conditions: 37° C., 0-4 h
Description: • (1) An appropriate amount of blank whole blood was added into an EP tube containing sodium heparin, then added the working solution of the test substance to a final concentration of 1 μM, and mixed by vortex; • (2) The sample was placed in a water bath at 37° C. with two parallel experiments; for one experiment, the time points were 0 h, 0.5 h, 1 h, 2 h, and 4 h; another experiment was performed to obtain the absolute zero point, which was compared with the 0 h point. • (3) An appropriate amount of sample was taken out from the incubation system, to which 300 μL of internal standard precipitant was added for protein precipitation; (4) all samples were centrifuged at 6° C. for 10 min (15700×g). • (5) 150 μL of the supernatant was taken out, to which 150 μL of water was added, which was mixed by vortex, and analyzed by LC-MS/MS. The stability data of compounds in human whole blood is as follows: […]

human plasma protein = experiment: Binding rate test of compounds and human plasma protein (equilibrium dialysis); assay type: in vitro ADME; conditions: 1 μM, equilibrium dialysis 6 hours, 37° C.
Method in brief: (§1)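 Equilibrium dialysis of compound at 1 μM final in human plasma against 100 mM phosphate buffer with 0.002% Tween 80, shaken 6 hours at 37° C. Both sides quantified after acetonitrile/internal-standard precipitation. Binding calculated as 1 − free fraction, where free fraction = buffer/plasma concentration ratio.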

[2] = Pharmacokinetic test in cynomolgus monkeys; assay type: in vivo; conditions: IV 2 mg/kg
Description: The control compound 2 and compound 19 were formulated into 1 mg/mL solution in 10% DMSO/90% PBS. Cynomolgus monkeys were obtained from Suzhou Leo Bio Technology Co., Ltd. The control compound 2 and compound 19 were administered intravenously at 2 mg/kg, respectively. The blood collected before administration was recorded as zero point. Then 1 mL of blood was collected at eight time points: 0.083, 0.15, 0.5, 1.0 2.0, 4.0, 8.0, and 24.0, respectively. 1 mL of the collected whole blood was placed in a labeled EDTA-2K anticoagulant tube. After gently inverting up and down to fully mix the anticoagulant (EDTA-2K) with the blood, it was immediately placed in wet ice and centrifuged within 30 minutes to separate the plasma. The centrifugation conditions were set to 4° C., 2200 g, and 6 min. The plasma separated after centrifugation was placed in a labeled EP tube, and the content of compound 19 and control compound 2 in the plasma samples at different time points were detected and analyzed. There were 3 male cynomolgus monkeys in each group.

MV4-11-luc cells = experiment: EC50 assay of small molecule activated γδ T cells to kill MV4-11-luc tumor cells; assay type: cell-based; conditions: γδT cells + MV4-11-luc, E:T=2:1, co-culture 20 hours, 0.05-100 nM, read-out: MV4-11 killing (EC50)
Description: γδT cells and MV4-11-luc tumor cell lines were expanded and cultured in vitro. The MV4-11-luc cells were digested, and the cells were counted and resuspended in IMDM complete medium, the density of the cell suspension was adjusted and added into a 96-well plate at 5×10^3 cells/100 μL/well for overnight incubation. On the next day, the test compound and the control compound were diluted at a 3-fold ratio with DMSO, and 4 μL of the diluted compound was added to 96 μL of culture medium for 25-fold dilution. 5 μL of 25-fold diluted compound was transferred to the corresponding well which had been plated with tumor cells, and the actual detection concentration was in the range of 0.05-100 nM. γδT cells were resuspended in γδT complete medium, and the density of the cell suspension was adjusted according to the effector-target ratio of E:T=2:1, and then the cell was added to the corresponding well at 1×10^4 cells/100 μL/well. After co-culture at 37° C., 5% CO2 for 20 hours, the cells were centrifuged. […] After standing for 18 minutes in the dark, the signal of chemiluminescence was detected. The EC50 value was calculated by four-parameter fitting, with the corresponding signal value of the well with only tumor cells as the minimum killing value, and the corresponding value of the well without tumor cells as the maximum killing value.

[3] = Binding rate test of compounds and human plasma protein (equilibrium dialysis); assay type: in vitro ADME; conditions: human plasma, equilibrium dialysis 6 hours, 37° C.
Method in brief: as §1

Row | SMILES | T1/2 in human whole blood ([1]; 1 μM) | human plasma protein binding rate (human plasma protein) | Plasma concentration of the unchanged drug ([2]; 5 min) | Plasma concentration of the unchanged drug ([2]; 9 min) | Plasma concentration of the unchanged drug ([2]; 30 min) | Plasma concentration of the unchanged drug ([2]; 1 h) | AUC0-t (AUClast) ([2]; average) | AUC0-t/AUC0-inf ([2]; average) | Cl (Cl_obs) ([2]; average) | EC50 (MV4-11-luc cells) | half-life at 1 μM ([1]; whole blood (sodium heparin), read-out: T1/2 in human whole blood (converted)) | fraction unbound at 6 h, 1 μM [3] | EC50 (MV4-11-luc cells; Homo sapiens)
1 | C/C(=C\CC[P@@](=O)(N[C@@H](C)C(=O)O[C@@H]1CCOC1)Oc1ccccc1)CO [Compound 19, (R)-tetrahydrofuran-3-yl ((S)-((R)-5-hydroxy-4-methylpent-3-en-1-yl)(phenoxy)phosphoryl)-L-alaninate] | >8 h | 64.6% | 1370 ng/mL | 878 ng/mL | 139 ng/mL | 12 ng/mL | 426 ng·h/mL | 0.959 | 76.3 mL/min/kg | 0.004 nM | – | – | –
2 | C/C(=C\CCP(=O)(N[C@@H](C)C(=O)OC(C)C)Oc1ccccc1)CO (stereo partly drawn) [Control compound 1, Isopropyl (((E)-5-hydroxy-4-methylpent-3-en-1-yl)(phenoxy)phosphoryl)-L-alaninate, reference compound] | – | – | – | – | – | – | – | – | – | – | > 8 h | 0.073 | 0.05 nM
